{"source": "patent US12157730B2", "about": "“Heteroaryl derivative, method for producing same, and pharmaceutical composition comprising same as effective component” (VORONOI INC., priority 2019, dated 2024)", "molecular_target": "T1, Ba/F3 cell EGFR Exon20 ins NPH (Homo sapiens, UniProt P00533, INS773NPH)", "T1 construct": "expressed in transfected cells; host or cells: Ba/F3", "experiment": "Ba/F3 cell proliferation suppression, EGFR Exon20 ins NPH", "type": "cell-based", "settings": "GI50 class; Ba/F3 cell line with NPH inserted at Exon20 of EGFR; 72 hours", "summary_of_the_method": "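Cells were seeded 24 h before dosing and then treated for 72 hours with compound at final concentrations of 0.3 nM to 50 um. Live cells were measured by CellTiter-Glo luminescence, and GI50 values were derived from growth ratio relative to control across three repeats.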"}
{"smiles": "C=CC(=O)Nc1cc(Nc2cc(N3OCC[C@@H]3c3cccc(C#N)c3)ncn2)c(OC)cc1N1CCC(N2CCN(C3CC3)[C@@H](C)C2)CC1", "note": "[Example 125, N-(5-((6-((R)-3-(3-cyanophenyl)isoxazolidine-2-yl)pyrimidine-4-yl)amino)-2-(4-((S)-4-cyclopropyl-3-methylpiperazine-1-yl)piperidine-1-yl)-4-methoxyphenyl) acrylamide]", "values": [{"measurement": "Ba/F3 (NPH) Activity", "value": "A (GI50 < 50 nM)"}]}
{"smiles": "C=CC(=O)Nc1cc(Nc2cc(N3OCC[C@@H]3c3cccc(F)c3F)ncn2)c(OC)cc1N1CC2CCC(C1)O2", "note": "[compound 887, N-(2-(8-oxa-3-azabicyclo[3.2.1]octan-3-yl)-5-((6-((R)-3-(2,3-difluorophenyl)isoxazolidine-2-yl)pyrimidine-4-yl)amino)-4-methoxyphenyl) acrylamide]", "values": [{"measurement": "Ba/F3 (NPH) Activity", "value": "A (GI50 < 50 nM)"}]}
{"smiles": "C=CC(=O)Nc1cc(Nc2cc(N3OCC[C@@H]3c3cccc(C#N)c3)ncn2)c(OC)cc1N1CCC(N2CC[C@@H](N(C)C)C2)CC1", "note": "[compound 492, N-(5-((6-((R)-3-(3-cyanophenyl)isoxazolidine-2-yl)pyrimidine-4-yl)amino)-2-(4-((R)-3-(dimethylamino)pyrolidine-1-yl)piperidine-1-yl)-4-methoxyphenyl) acrylamide]", "values": [{"measurement": "Ba/F3 (NPH) Activity", "value": "B (50 nM ≤ GI50 < 500 nM)"}]}
{"smiles": "C=CC(=O)Nc1cc(Nc2cc(N3OCC[C@@H]3c3cc(F)cc(F)c3)ncn2)c(O[C@H](C)C(F)(F)F)cc1N1CCC(N2CCN(C3CC3)CC2)CC1", "note": "[Example 119, N-(2-(4-(4-cyclopropylpiperazine-1-yl)piperidine-1-yl)-5-((6-((R)-3-(3,5-difluorophenyl)isoxazolidine-2-yl)pyrimidine-4-yl)amino)-4-(((R)-1,1,1-trifluoropropane-yl)oxy)phenyl)acrylamide]", "values": [{"measurement": "Ba/F3 (NPH) Activity", "value": "A (GI50 < 50 nM)"}]}
{"smiles": "C=CC(=O)Nc1cc(Nc2cc(N3OCC[C@@H]3c3ccc(F)c(Cl)c3F)ncn2)c(OC)cc1N1CCN(C)CC1", "note": "[compound 604, N-(5-((6-((R)-3-(3-chloro-2,4-difluorophenyl)isoxazolidine-2-yl)pyrimidine-4-yl)amino)-4-methoxy-2-(4-methylpiperazine-1-yl)phenyl)acrylamide]", "values": [{"measurement": "Ba/F3 (NPH) Activity", "value": "A (GI50 < 50 nM)"}]}
{"smiles": "C=CC(=O)Nc1cc(Nc2cc(N3OCC[C@@H]3c3cccc4ccccc34)ncn2)c(OC)cc1N1CC[C@@H](N(C)C)C1", "note": "[compound 443, N-(2-((R)-3-(dimethylamino)pyrolidine-1-yl)-4-methoxy-5-((6-((R)-3-(naphthalene-1-yl)isoxazolidine-2-yl)pyrimidine-4-yl)amino)phenyl) acrylamide]", "values": [{"measurement": "Ba/F3 (NPH) Activity", "value": "A (GI50 < 50 nM)"}]}
{"smiles": "C=CC(=O)Nc1cc(Nc2cc(N3OCC[C@@H]3c3cccc(Cl)c3Cl)ncn2)c(OC)cc1-n1cnc(C)c1", "note": "[compound 527, N-(5-((6-((R)-3-(2,3-dichlorophenyl)isoxazolidine-2-yl)pyrimidine-4-yl)amino)-4-methoxy-2-(4-methyl-1H-imidazole-1-yl)phenyl)acrylamide]", "values": [{"measurement": "Ba/F3 (NPH) Activity", "value": "A (GI50 < 50 nM)"}]}
{"smiles": "C=CC(=O)Nc1cc(Nc2cc(N3OCC[C@@H]3c3cccc(Cl)c3Cl)ncn2)c(OC)cc1N1CCC(N2CCN(C)CC2)CC1", "note": "[compound 565, N-(5-((6-((R)-3-(2,3-dichlorophenyl)isoxazolidine-2-yl)pyrimidine-4-yl)amino)-4-methoxy-2-(4-(4-methylpiperazine-1-yl)piperidine-1-yl)phenyl) acrylamide]", "values": [{"measurement": "Ba/F3 (NPH) Activity", "value": "A (GI50 < 50 nM)"}]}
{"smiles": "C=CC(=O)Nc1cc(Nc2cc(N3OCC[C@@H]3c3ccc(F)c(Cl)c3F)ncn2)c(OC)cc1N1CCC(N2CCOCC2)CC1", "note": "[compound 606, N-(5-((6-((R)-3-(3-chloro-2,4-difluorophenyl)isoxazolidine-2-yl)pyrimidine-4-yl)amino)-4-methoxy-2-(4-morpholinopiperidine-1-yl)phenyl)acrylamide]", "values": [{"measurement": "Ba/F3 (NPH) Activity", "value": "A (GI50 < 50 nM)"}]}
{"smiles": "C=CC(=O)Nc1cc(Nc2cc(N3OCC[C@@H]3c3cc(F)cc(Cl)c3)ncn2)c(OC)cc1N1CCC(N2CCO[C@H](C)C2)CC1", "note": "[compound 596, N-(5-((6-((R)-3-(3-chloro-5-fluorophenyl)isoxazolidine-2-yl)pyrimidine-4-yl)amino)-4-methoxy-2-(4-((R)-2-methylmorpholino)piperidine-1-yl)phenyl)acrylamide]", "values": [{"measurement": "Ba/F3 (NPH) Activity", "value": "A (GI50 < 50 nM)"}]}
{"smiles": "C=CC(=O)Nc1cc(Nc2cc(N3OCC[C@@H]3c3ccc(Cl)c(Cl)c3)ncn2)c(OC)cc1N1C[C@H]2C[C@@H]1CO2", "note": "[compound 671, N-(2-((1R,4R)-2-oxa-5-azabicyclo[2.2.1]heptane-5-yl)-5-((6-((R)-3-(3,4-dichlorophenyl)isoxazolidine-2-yl)pyrimidine-4-yl)amino)-4-methoxyphenyl) acrylamide]", "values": [{"measurement": "Ba/F3 (NPH) Activity", "value": "A (GI50 < 50 nM)"}]}
{"smiles": "C=CC(=O)Nc1cc(Nc2cc(N3OCC[C@@H]3c3cccc(Cl)c3)ncn2)c(OC)cc1N1CCC(N2CCOCC2)CC1", "note": "[compound 417, N-(5-((6-((R)-3-(3-chlorophenyl)isoxazolidine-2-yl)pyrimidine-4-yl)amino)-4-methoxy-2-(4-morpholinopiperidine-1-yl)phenyl) acrylamide]", "values": [{"measurement": "Ba/F3 (NPH) Activity", "value": "A (GI50 < 50 nM)"}]}
{"smiles": "C=CC(=O)Nc1cc(Nc2cc(N3OCC[C@@H]3c3cccc(Cl)c3)ncn2)c(OC)cc1N1CCN(C2CC2)CC1", "note": "[compound 463, N-(5-((6-((R)-3-(3-chlorophenyl)isoxazolidine-2-yl)pyrimidine-4-yl)amino)-2-(4-cyclopropylpiperazine-1-yl)-4-methoxyphenyl) acrylamide]", "values": [{"measurement": "Ba/F3 (NPH) Activity", "value": "B (50 nM ≤ GI50 < 500 nM)"}]}
{"smiles": "C=CC(=O)Nc1cc(Nc2cc(N3OCC[C@@H]3c3cccc(F)c3Cl)ncn2)c(OC)cc1N1CCC(N2CC3CCC(C2)N3C2CC2)CC1", "note": "[Example 142, N-(5-((6-((R)-3-(2-chloro-3-fluorophenyl)isoxazolidine-2-yl)pyrimidine-4-yl)amino)-2-(4-(8-cyclopropyl-3,8-diazabicyclo[3.2.1]octan-3-yl)piperidine-1-yl)-4-methoxyphenyl) acrylamide]", "values": [{"measurement": "Ba/F3 (NPH) Activity", "value": "A (GI50 < 50 nM)"}]}
{"smiles": "C=CC(=O)Nc1cc(Nc2cc(N3OCC[C@@H]3c3cccc(F)c3)ncn2)c(OC)cc1N1CCC(N2C[C@H]3C[C@@H]2CO3)CC1", "note": "[Example 243, N-(2-(4-((1R,4R)-2-oxa-5-azabicyclo[2.2.1]heptane-5-yl)piperidine-1-yl)-5-((6-((R)-3-(3-fluorophenyl)isoxazolidine-2-yl)pyrimidine-4-yl)amino)-4-methoxyphenyl) acrylamide]", "values": [{"measurement": "Ba/F3 (NPH) Activity", "value": "A (GI50 < 50 nM)"}]}
{"smiles": "C=CC(=O)Nc1cc(Nc2cc(N3OCC[C@@H]3c3cccc(F)c3)ncn2)c(OC)cc1N1CCC(N(C)C)CC1", "note": "[Example 245, N-(2-(4-(dimethylamino)piperidine-1-yl)-5-((6-((R)-3-(3-fluorophenyl)isoxazolidine-2-yl)pyrimidine-4-yl)amino)-4-methoxyphenyl) acrylamide]", "values": [{"measurement": "Ba/F3 (NPH) Activity", "value": "A (GI50 < 50 nM)"}]}
{"smiles": "C=CC(=O)Nc1cc(Nc2cc(N3OCC[C@@H]3c3ccc(F)c(Cl)c3)ncn2)c(OC)cc1N1CCC(N2CCOCC2)CC1", "note": "[compound 720, N-(5-((6-((R)-3-(3-chloro-4-fluorophenyl)isoxazolidine-2-yl)pyrimidine-4-yl)amino)-4-methoxy-2-(4-morpholinopiperidine-1-yl)phenyl)acrylamide]", "values": [{"measurement": "Ba/F3 (NPH) Activity", "value": "A (GI50 < 50 nM)"}]}
{"smiles": "C=CC(=O)Nc1cc(Nc2cc(N3OCC[C@@H]3c3cc(F)cc(F)c3)ncn2)c(OC)cc1N1CCOCC1", "note": "[compound 823, N-(5-((6-((R)-3-(3,5-difluorophenyl)isoxazolidine-2-yl)pyrimidine-4-yl)amino)-4-methoxy-2-morpholinophenyl) acrylamide]", "values": [{"measurement": "Ba/F3 (NPH) Activity", "value": "A (GI50 < 50 nM)"}]}
{"smiles": "C=CC(=O)Nc1cc(Nc2cc(N3OCC[C@@H]3c3cccc(Cl)c3C)ncn2)c(OC)cc1N1CCC(N2CCN(C)CC2)CC1", "note": "[compound 485, N-(5-((6-((R)-3-(3-chloro-2-methylphenyl)isoxazolidine-2-yl)pyrimidine-4-yl)amino)-4-methoxy-2-(4-(4-methylpiperazine-1-yl)piperidine-1-yl)phenyl) acrylamide]", "values": [{"measurement": "Ba/F3 (NPH) Activity", "value": "A (GI50 < 50 nM)"}]}
{"smiles": "C=CC(=O)Nc1cc(Nc2cc(N3OCC[C@@H]3c3ccc(F)c(Cl)c3)ncn2)c(OC)cc1N1CCC(N2CCC3(CC2)CC3)CC1", "note": "[compound 872, N-(2-(4-(6-azaspiro [2.5]octan-6-yl)piperidine-1-yl)-5-((6-((R)-3-(3-chloro-4-fluorophenyl)isoxazolidine-2-yl)pyrimidine-4-yl)amino)-4-methoxyphenyl) acrylamide]", "values": [{"measurement": "Ba/F3 (NPH) Activity", "value": "A (GI50 < 50 nM)"}]}
{"smiles": "C=CC(=O)Nc1cc(Nc2cc(N3OCC[C@@H]3c3c(F)ccc(F)c3F)ncn2)c(OC)cc1N1CCC(N2CCO[C@@H](C)C2)CC1", "note": "[compound 645, N-(4-methoxy-2-(4-((S)-2-methylmorpholino)piperidine-1-yl)-5-((6-((R)-3-(2,3,6-trifluorophenyl)isoxazolidine-2-yl)pyrimidine-4-yl)amino)phenyl)acrylamide]", "values": [{"measurement": "Ba/F3 (NPH) Activity", "value": "A (GI50 < 50 nM)"}]}
{"smiles": "C=CC(=O)Nc1cc(Nc2cc(N3OCC[C@@H]3c3cccc(F)c3)ncn2)c(OC)cc1N1CCN(CC)CC1", "note": "[Example 246, N-(2-(4-ethylpiperazine-1-yl)-5-((6-((R)-3-(3-fluorophenyl)isoxazolidine-2-yl)pyrimidine-4-yl)amino)-4-methoxyphenyl) acrylamide]", "values": [{"measurement": "Ba/F3 (NPH) Activity", "value": "A (GI50 < 50 nM)"}]}
{"smiles": "C=CC(=O)Nc1cc(Nc2cc(N3OCC[C@@H]3c3cccc(F)c3F)ncn2)c(OC)cc1N1CCC(N2CCC(F)(F)CC2)CC1", "note": "[compound 341, N-(2-(4,4-difluoro-[1,4'-bipiperidine]-1'-yl)-5-((6-((R)-3-(2,3-difluorophenyl)isoxazolidine-2-yl)pyrimidine-4-yl)amino)-4-methoxyphenyl) acrylamide]", "values": [{"measurement": "Ba/F3 (NPH) Activity", "value": "A (GI50 < 50 nM)"}]}
